In US11046672B2, “Indolinones compounds and their use in the treatment of fibrotic diseases” (RESPIVERT LIMITED, priority 2015, dated 2021):
Like-named read-outs stand apart in the source and are kept apart here. Each block holds one compound with its values, some of them ahead of it.

Legend:
[1] = Pharmacokinetic measurements in mice (intravenous and intra-nasal dosing); type: in vivo; conditions: mouse; for concentration at 6 h / concentration at 0.1 h / concentration at 1.5 h / concentration at 24 h / Kp at 6 h / Kp at 0.1 h / Kp at 1.5 h: male, C57BL/6J; for concentration at 6 h / concentration at 0.1 h / concentration at 1.5 h / concentration at 24 h: lung, read-out: lung concentration (nM) at time (h); for concentration at 6 h / concentration at 0.1 h / concentration at 1.5 h / concentration at 24 h / BAV (%): mean; for Kp at 6 h / Kp at 0.1 h / Kp at 1.5 h: lung/plasma
PDGFRβ [2] = biological target: T1, PDGFRβ (Homo sapiens (Human), UniProt P09619); assay: PDGF-BB induced phosphorylation of PDGFRβ in fibroblasts (MRC5 cells, HTRF); type: cell-based; conditions: MRC5 cells; n = 1 unless otherwise indicated; read-out: PDGFBB-induced PDGFRβ phosphorylation in MRC5 cells (IC50)
T1 sequence (P09619 33-1106): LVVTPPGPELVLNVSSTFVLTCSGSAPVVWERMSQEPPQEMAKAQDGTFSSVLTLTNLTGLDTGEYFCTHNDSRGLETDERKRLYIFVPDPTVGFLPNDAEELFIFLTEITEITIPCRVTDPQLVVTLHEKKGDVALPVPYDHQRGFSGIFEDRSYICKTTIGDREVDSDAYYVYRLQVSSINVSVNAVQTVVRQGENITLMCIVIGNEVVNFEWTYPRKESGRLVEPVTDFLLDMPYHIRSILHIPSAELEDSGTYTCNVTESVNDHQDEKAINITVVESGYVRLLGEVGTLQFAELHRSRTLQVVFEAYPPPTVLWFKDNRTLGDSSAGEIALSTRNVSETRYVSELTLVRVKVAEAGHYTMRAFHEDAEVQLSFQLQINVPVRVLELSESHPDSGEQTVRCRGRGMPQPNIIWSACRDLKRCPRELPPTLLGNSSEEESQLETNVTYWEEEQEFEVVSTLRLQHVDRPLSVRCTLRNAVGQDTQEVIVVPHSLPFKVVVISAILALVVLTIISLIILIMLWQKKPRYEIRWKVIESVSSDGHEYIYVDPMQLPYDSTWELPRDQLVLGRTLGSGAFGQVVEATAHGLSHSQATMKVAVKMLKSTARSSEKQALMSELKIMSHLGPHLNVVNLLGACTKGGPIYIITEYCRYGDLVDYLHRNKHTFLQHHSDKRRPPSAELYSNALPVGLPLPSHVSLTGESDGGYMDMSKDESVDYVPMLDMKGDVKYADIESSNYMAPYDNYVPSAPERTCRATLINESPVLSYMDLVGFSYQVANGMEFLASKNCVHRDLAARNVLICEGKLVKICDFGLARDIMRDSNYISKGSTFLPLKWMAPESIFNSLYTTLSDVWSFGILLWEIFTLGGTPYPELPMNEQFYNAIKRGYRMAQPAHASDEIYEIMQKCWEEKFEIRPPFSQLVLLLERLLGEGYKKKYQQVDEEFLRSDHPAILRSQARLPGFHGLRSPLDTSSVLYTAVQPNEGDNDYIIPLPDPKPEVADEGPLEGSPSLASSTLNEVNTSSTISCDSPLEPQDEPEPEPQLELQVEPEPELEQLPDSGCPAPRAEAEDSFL

PAMPA permeability assay = type: in vitro ADME; conditions: PAMPA; for recovery at 5 hr, 10 μM: pH 7, PAMPA, donor and acceptor compartments; for Papp at 5 h, 10 μM: pH 7, pH 7, 10 μM
MRC5 cells = assay: Cell viability assay in MRC5 cells (MTT)
[3] = Pharmacokinetic measurements in rats (intravenous and intra-tracheal dosing); type: in vivo; conditions: rat; for concentration at 0.1 h / concentration at 1.5 h / concentration at 24 h / concentration at 6 h: lung, read-out: lung concentration (nM) at time (h); for Kp at 0.1 h / Kp at 1.5 h / Kp at 24 h / Kp at 6 h: lung/plasma
PDGFRβ [4] = biological target: T1, PDGFRβ; conditions: read-out: Ki PDGFRβ; mean, n = 2 unless otherwise indicated
PDGFRβ [5] = biological target: T1, PDGFRβ; assay: Duration of action (washout) against PDGF-BB induced phosphorylation of PDGFRβ in human fetal lung fibroblast cells; type: cell-based; conditions: MRC-5 cells; for % phos: percentage phosphorylation after wash-out relative to maximal phosphorylation (100%): rhuPDGF-BB, experiments in Groups 1-4
[6] = male, CD, iv, i.v. dosing, 0.1 h
[7] = male, CD, iv, i.v. dosing, 1.5 h
[8] = male, CD, iv, i.v. dosing, 24 h
[9] = male, CD, other: intra-tracheal, i.t. dosing, 0.1 h
[10] = male, CD, other: intra-tracheal, i.t. dosing, 1.5 h
[11] = male, CD, other: intra-tracheal, i.t. dosing, 24 h
[12] = male, CD, iv, i.v. dosing, 0.1 h, read-out: lung/plasma ratio at time(h)
[13] = male, CD, iv, i.v. dosing, 1.5 h, read-out: lung/plasma ratio at time(h)
[14] = male, CD, other: intra-tracheal, i.t. dosing, 0.1 h, read-out: lung/plasma conc ratio at time(h)
[15] = male, CD, other: intra-tracheal, i.t. dosing, 1.5 h, read-out: lung/plasma conc ratio at time(h)

concentration at 6 h ([1]; iv, 0.2 mg/kg, i.v. dosing, 6 h): 46 nM
concentration at 0.1 h ([1]; iv, i.v. dosing, 0.1 h): 580 nM
concentration at 1.5 h ([1]; iv, i.v. dosing, 1.5 h): 168 nM
concentration at 24 h ([1]; iv, i.v. dosing, 24 h): 13 nM
concentration at 0.1 h ([1]; other: intra-nasal, i.n. dosing, 0.1 h): 1490 nM
concentration at 1.5 h ([1]; other: intra-nasal, i.n. dosing, 1.5 h): 986 nM
concentration at 6 h ([1]; other: intra-nasal, i.n. dosing, 6 h): 258 nM
concentration at 24 h ([1]; other: intra-nasal, i.n. dosing, 24 h): 84 nM
Kp at 6 h ([1]; iv, 0.2 mg/kg, i.v. dosing, 6 h, read-out: lung/plasma ratio at time(h)): 65
Kp at 0.1 h ([1]; iv, i.v. dosing, 0.1 h, read-out: lung/plasma ratio at time(h)): 11
Kp at 1.5 h ([1]; iv, i.v. dosing, 1.5 h, read-out: lung/plasma ratio at time(h)): 40
Kp at 0.1 h ([1]; other: intra-nasal, i.n. dosing, 0.1 h, read-out: lung/plasma conc ratio at time(h)): 79
Kp at 1.5 h ([1]; other: intra-nasal, i.n. dosing, 1.5 h, read-out: lung/plasma conc ratio at time(h)): 398
Kp at 6 h ([1]; other: intra-nasal, i.n. dosing, 6 h, read-out: lung/plasma conc ratio at time(h)): 607
Lung conc i.n./i.v. Ratio at time (h) ([1]; 0.1 h): 2.6
Lung conc i.n./i.v. Ratio at time (h) ([1]; 1.5 h): 5.9
Lung conc i.n./i.v. Ratio at time (h) ([1]; 6 h): 5.6
Lung conc i.n./i.v. Ratio at time (h) ([1]; 24 h): 6.5
BAV (%) ([1]; i.n. dosing (i.n. dose 1 nintedanib, 0.2 examples)): ~50%
BAL % administered dose at time (h) ([1]; i.n. dosing, 0.1 h): 1%
BAL % administered dose at time (h) ([1]; i.n. dosing, 1.5 h): 0.3%
BAL % administered dose at time (h) ([1]; i.n. dosing, 6 h): 0.1%
BAL % administered dose at time (h) ([1]; i.n. dosing, 24 h): 0.04%
BAL % administered dose at time (h) ([1]; i.v. dosing, 0.1 h): 0.1%
BAL % administered dose at time (h) ([1]; i.v. dosing, 1.5 h): 0.01%
BAV (%) ([1]; oral dosing (oral dose 60 mg/kg nintedanib, 10 mg/kg examples)): <5%
IC50 (PDGFRβ [2]): 6.95 nM
recovery at 5 hr, 10 μM (PAMPA permeability assay): 42%
Papp at 5 h, 10 μM (PAMPA permeability assay): 0.00649 ×10⁻⁶ cm/s
concentration at 0.1 h [3, 6]: 2990 nM
concentration at 1.5 h [3, 7]: 1880 nM
concentration at 24 h [3, 8]: 173 nM
concentration at 0.1 h [3, 9]: 30400 nM
concentration at 1.5 h [3, 10]: 11900 nM
concentration at 24 h [3, 11]: 4720 nM
Kp at 0.1 h [3, 12]: 103
Kp at 1.5 h [3, 13]: 315
Kp at 24 h ([3]; male, CD, iv, i.v. dosing, 24 h, read-out: lung/plasma ratio at time(h)): 198
Kp at 0.1 h [3, 14]: 288
Kp at 1.5 h [3, 15]: 2890
Kp at 24 h ([3]; male, CD, other: intra-tracheal, i.t. dosing, 24 h, read-out: lung/plasma conc ratio at time(h)): 3280
MRT ([3]; male, CD, plasma, iv, i.v. dosing): 7.9 h
clearance ([3]; male, CD, plasma, iv, i.v. dosing (i.v. dose 0.1-0.5 per compound)): 132 mL/min/kg
Vd ([3]; male, CD, plasma, iv, i.v. dosing, read-out: Vss): 63 L/kg
half-life ([3]; male, CD, plasma, iv, i.v. dosing, read-out: t½ (converted)): 8.1 h
Lung conc i.t./i.v. Ratio at time (h) ([3]; 0.1 h): 10.2
Lung conc i.t./i.v. Ratio at time (h) ([3]; 1.5 h): 6.3
Lung conc i.t./i.v. Ratio at time (h) ([3]; 24 h): 27.3
i.t. BAV (%) ([3]; i.t. dosing (i.t. dose 0.1-0.5 per compound)): 115%
BAL % administered dose at time (h) ([3]; i.t. dosing, 0.1 h): 6%
BAL % administered dose at time (h) ([3]; i.t. dosing, 1.5 h): 3%
BAL % administered dose at time (h) ([3]; i.t. dosing, 24 h): 0.1%
BAL % administered dose at time (h) ([3]; i.v. dosing, 0.1 h): 0.06%
BAL % administered dose at time (h) ([3]; i.v. dosing, 1.5 h): 0.03%
BAL % administered dose at time (h) ([3]; i.v. dosing, 24 h): BQL
Oral BAV (%) ([3]; oral dose 3 mg/kg): <1%
Ki (PDGFRβ [4]): 8.31 nM
% phos: percentage phosphorylation after wash-out relative to maximal phosphorylation (100%) (PDGFRβ [5]): 31.6%
Duration of action as inhibitors of PDGFRβ compared with nintedanib (PDGFRβ [5]; wash-out): longer duration of action
SMILES: COC(=O)c1cc2c(cc1C)/C(=C(/Nc1ccc(C(=O)NOCCN3CCN(C)CC3)cc1)c1ccccc1)C(=O)N2 [Example 6, (Z)-Methyl 5-methyl-3-(((4-((2-(4-methylpiperazin-1-yl)ethoxy)carbamoyl)phenyl)amino)(phenyl)methylene)-2-oxoindoline-6-carboxylate]
Cell viability at 100 nM (%) (MRC5 cells): 98.1%
Cell viability at 300 nM (%) (MRC5 cells): 88.5%
Cell viability at 1000 nM (%) (MRC5 cells): 77%

IC50 (PDGFRβ [2]): 10.4 nM
recovery at 5 hr, 10 μM (PAMPA permeability assay): 58.1%
Papp at 5 h, 10 μM (PAMPA permeability assay): 0.0245 ×10⁻⁶ cm/s
concentration at 6 h ([3]; male, CD, iv, 0.1 mg/kg, i.v. dosing, 6 h): 69 nM
concentration at 0.1 h [3, 6]: 329 nM
concentration at 1.5 h [3, 7]: 172 nM
concentration at 24 h [3, 8]: 30 nM
concentration at 0.1 h [3, 9]: 2100 nM
concentration at 1.5 h [3, 10]: 881 nM
concentration at 6 h ([3]; male, CD, other: intra-tracheal, i.t. dosing, 6 h): 1000 nM
concentration at 24 h [3, 11]: 519 nM
Kp at 6 h ([3]; male, CD, iv, 0.1 mg/kg, i.v. dosing, 6 h, read-out: lung/plasma ratio at time(h)): 10
Kp at 0.1 h [3, 12]: 17
Kp at 1.5 h [3, 13]: 15
Kp at 0.1 h [3, 14]: 233
Kp at 1.5 h [3, 15]: 114
Kp at 6 h ([3]; male, CD, other: intra-tracheal, i.t. dosing, 6 h, read-out: lung/plasma conc ratio at time(h)): 114
Lung conc i.t./i.v. Ratio at time (h) ([3]; 0.1 h): 6
Lung conc i.t./i.v. Ratio at time (h) ([3]; 1.5 h): 5
Lung conc i.t./i.v. Ratio at time (h) ([3]; 6 h): 15
Lung conc i.t./i.v. Ratio at time (h) ([3]; 24 h): 17
BAL % administered dose at time (h) ([3]; i.t. dosing, 0.1 h): 5.3%
BAL % administered dose at time (h) ([3]; i.t. dosing, 1.5 h): 0.2%
BAL % administered dose at time (h) ([3]; i.t. dosing, 6 h): 0.3%
BAL % administered dose at time (h) ([3]; i.t. dosing, 24 h): 0.1%
BAL % administered dose at time (h) ([3]; i.v. dosing, 0.1 h): BLQ
BAL % administered dose at time (h) ([3]; i.v. dosing, 1.5 h): BLQ
BAL % administered dose at time (h) ([3]; i.v. dosing, 6 h): BLQ
BAL % administered dose at time (h) ([3]; i.v. dosing, 24 h): BLQ
Ki (PDGFRβ [4]): 6.6 nM
% phos: percentage phosphorylation after wash-out relative to maximal phosphorylation (100%) (PDGFRβ [5]): 84.7%
SMILES: COC(=O)c1cc2c(cc1C)/C(=C(/Nc1ccc(C(=O)NOCCN3CCN(CCO)CC3)cc1)c1ccccc1)C(=O)N2 [Example 7, (Z)-Methyl 3-(((4-((2-(4-(2-hydroxyethyl)piperazin-1-yl)ethoxy)carbamoyl)phenyl)amino)(phenyl)methylene)-5-methyl-2-oxoindoline-6-carboxylate]
Cell viability at 100 nM (%) (MRC5 cells): 90.7%
Cell viability at 300 nM (%) (MRC5 cells): 98%
Cell viability at 1000 nM (%) (MRC5 cells): 86.8%
